Reference: patent USRE30561E, “Vinca alkaloid intermediates” (Eli Lilly and Company, priority 1979, dated 1981)

Tests used:
[1] = tested on: experimental malignancies; settings: in vivo; cited from earlier work
[2] = tested on: GLS (Gardner lymphosarcoma); assay: Transplanted Gardner lymphosarcoma (GLS) tumor in mice; format: in vivo; settings: for inhibitory activity orally / oral activity: orally
Description: (§1) The following table--Table 1--gives the results of several experiments in which mice bearing transplanted tumors were treated successfully with a compound of this invention. In the table, column 1 gives the name of the compound; column 2, the transplanted tumor; column 3, the dose level or dose level range and the number of days the dosage was administered; column 4, the route of administration, and column 5, the percent inhibition of tumor growth or percent prolongation of survival time, e.g., B16 and P388. (ROS is an abbreviation for Ridgeway osteogenic sarcoma; GLS for Gardner lymphosarcoma; P1534(J) and P388 are leukemias; CA 755 is an adenocarcinoma; and B16 is a melamoma).

transplanted tumors [3] = settings: animals; cited from earlier work
B16 = assay: Transplanted B16 melanoma in mice, prolongation of survival time; format: in vivo; settings: IP
Description: as §1

CA755 = assay: Transplanted CA755 adenocarcinoma in mice; format: in vivo; settings: for inhibitory activity orally / oral activity: orally
Description: as §1

P1534(J) = assay: Transplanted P1534(J) leukemia in mice; format: in vivo
Description: as §1

[4] = tested on: ROS (Ridgeway osteogenic sarcoma); assay: Transplanted Ridgeway osteogenic sarcoma (ROS) in mice; format: in vivo; settings: for inhibitory activity orally / oral activity: orally
Description: as §1

transplanted tumors [5] = assay: Activity against transplanted tumors in mice in vivo (general); settings: for dose level at which comparable tumor inhibition or prolongation of life is shown: parenterally, intraperitoneal route
Description: as §1

[6] = Toxicity at higher oral dose levels in experimental animals; format: in vivo; settings: orally, above 2 (VLB) and 2-4.5 (vincristine) mg./kg.
leukemias = settings: human, in vivo; cited from earlier work
[7] = humans; cited from earlier work

## CCC1(O)CN2CCc3c([nH]c4ccccc34)C(C(=O)OC)(c3cc4c(cc3OC)N(C)C3C(O)(C(=O)OC)CC5(CC)C=CCN6CCC43C65)CC(C2)C1O (stereo not drawn) [4-desacetoxy-3'-hydroxyvinblastine]
[1]
  activity in the treatment of experimental malignancies in animals: active

## CCC1(O)CC2CN(CCc3c([nH]c4ccccc34)C(C(=O)OC)(c3cc4c(cc3OC)N(C)C3C(O)(C(=O)OC)CC5(CC)C=CCN6CCC43C65)C2)C1 (stereo not drawn) [4-desacetoxyvinblastine]
[1]
  activity in the treatment of experimental malignancies in animals: active

## CCC1(O)CC2CN(CCc3c([nH]c4ccccc34)C(C(=O)OC)(c3cc4c(cc3OC)N(C)C3C5(OC(=O)N(C)C5=O)C(OC(=O)NC)C5(CC)C=CCN6CCC43C65)C2)C1 (stereo not drawn) [4-desacetyl VLB 3"-methyl-3-spiro-5"-oxazolidine-2", 4"-dione-4-(N-methyl)carbamate]
[2]; 0.1-2.5 mg./kg. × 7-9 days, IP
  Percent Inhibition of tumor growth: 40-100%

## CCC1(O)CC2CN(CCc3c([nH]c4ccccc34)C(C(=O)OC)(c3cc4c(cc3OC)N(C)C3C5(OC(=O)N(C)C5=O)C(O)C5(CC)C=CCN6CCC43C65)C2)C1 (stereo not drawn) [4-desacetyl VLB 3"-methyl-3-spiro-5"-oxazolidone-2",4"-dione]
[2]; 2.5 mg./kg. × 7 days, IP
  Percent Inhibition of tumor growth: 27%

## CCC1(O)CC2CN(CCc3c([nH]c4ccccc34)C(C(=O)OC)(c3cc4c(cc3OC)N(C)C3C(O)(C(=O)NCCS)C(O)C5(CC)C=CCN6CCC43C65)C2)C1 (stereo not drawn) [C-3 N-(β-mercaptoethyl)carboxamide of 4-desacetyl VLB]
Transplanted tumors [3]
  anti-tumor activity: highly effective anti-tumor agent in mice

## CCC1(O)CC2CN(CCc3c([nH]c4ccccc34)C(C(=O)OC)(c3cc4c(cc3OC)N(C)C3C5(OC(=O)N(CCCl)C5=O)C(OC(C)=O)C5(CC)C=CCN6CCC43C65)C2)C1 (stereo not drawn) [VLB 3"-(β-chloroethyl)-3-spiro-5"-oxazolidine-2",4"-dione]
[2]; 0.65 mg./kg. × 10 days, IP
  Percent Inhibition of tumor growth: 47%
[2]; 0.5-0.6 mg./kg. × 9-10 days, IP
  Percent Inhibition of tumor growth: 50-74%
[2]; 3-4 mg./kg. × 9 days, PO
  Percent Inhibition of tumor growth: 92-100%
[2]; 3-6 mg./kg.
  inhibitory activity orally: 100%
B16; 0.4-0.6 mg./kg. × 10 days
  Percent Prolongation of Survival Time: 25-178%
  indefinite survivors (survived for 60 days till end of trial): 5
CA755; 0.75-1.0 mg./kg. × 10 days, IP
  Percent Inhibition of tumor growth: 53%
CA755; 3-5 mg./kg. × 9-10 days, PO
  Percent Inhibition of tumor growth: 59-92%
CA755; 3-6 mg./kg.
  inhibitory activity orally: 100%
P1534(J); 3.5 mg./kg. × 8 days, PO
  Percent Inhibition or Prolongation of Survival Time: 100%
P1534(J); 0.4-0.6 mg./kg. × 10 days, IP
  Percent Inhibition or Prolongation of Survival Time: 61-86%
[4]; 3-6 mg./kg.
  inhibitory activity orally: 100%

## C=CCN1C(=O)OC2(C1=O)C(OC(C)=O)C1(CC)C=CCN3CCC4(c5cc(C6(C(=O)OC)CC7CN(CCc8c6[nH]c6ccccc86)CC(O)(CC)C7)c(OC)cc5N(C)C24)C31 (stereo not drawn) [VLB 3"-allyl-3-spiro-5"-oxazolidine-2",4"-dione]
[2]; 2.5 mg./kg. × 7 days, IP
  Percent Inhibition of tumor growth: 35%

## CCC1(O)CC2CN(CCc3c([nH]c4ccccc34)C(C(=O)OC)(c3cc4c(cc3OC)N(C)C3C5(OC(=O)N(C)C5=O)C(OC(C)=O)C5(CC)C=CCN6CCC43C65)C2)C1 (stereo not drawn) [VLB 3"-methyl-3-spiro-5"-oxazolidine-2",4"-dione]
[2]; 0.6 mg./kg. × 7 days, IP
  Percent Inhibition of tumor growth: 100%
[2]; 1.25 mg./kg. × 9 days, IP
  Percent Inhibition of tumor growth: 100%
[2]; 3-4 mg./kg. × 10 days, PO
  Percent Inhibition of tumor growth: 100%
[2]; 3-5 mg./kg. × 10 days, PO
  Percent Inhibition of tumor growth: 37-56%
[2]; 6-7 mg./kg.
  inhibitory activity orally: 100%
B16; 4.5 mg./kg. × 10 days
  Percent Prolongation of Survival Time: 49-91%
B16; 0.5-0.6 mg./kg. × 10 days
  indefinite survivors (survived for 60 days till end of trial): 3
CA755; 0.5-1.0 mg./kg. × 10 days, IP
  Percent Inhibition of tumor growth: 43-100%
CA755; 6-7 mg./kg.
  inhibitory activity orally: 100%
P1534(J); 3-4 mg./kg. × 8 days, PO
  Percent Inhibition or Prolongation of Survival Time: 100%
P1534(J); .5-.6 mg./kg. × 10 days, IP
  Percent Inhibition or Prolongation of Survival Time: 100%
[4]; 5-7 mg./kg. × 10 days, PO
  Percent Inhibition of tumor growth: 38-59%
[4]; 6-7 mg./kg.
  inhibitory activity orally: 100%

## CC[C@]1(O)C[C@@H]2CN(CCc3c([nH]c4ccccc34)[C@@](C(=O)OC)(c3cc4c(cc3OC)N(C)[C@H]3[C@@](O)(C(=O)OC)[C@H](OC(C)=O)[C@]5(CC)C=CCN6CC[C@]43[C@@H]65)C2)C1 [VLB, vincaleukoblastine]
[2]; 2 mg./kg.
  oral activity: only marginally active, if at all
CA755; 2 mg./kg.
  oral activity: only marginally active, if at all
[4]; 2 mg./kg.
  oral activity: only marginally active, if at all
Transplanted tumors [5]
  activity by the oral route: do not show this degree of oral activity
  dose level at which comparable tumor inhibition or prolongation of life is shown: 0.4 to 0.45 mg/kg
[6]
  toxicity at higher levels: usually are toxic at higher levels
[1]
  activity in the treatment of experimental malignancies in animals: active

## CCC1CC2CN(CCc3c([nH]c4ccccc34)C(C(=O)OC)(c3cc4c(cc3OC)N(C)C3C(O)(C(=O)OC)C(OC(C)=O)C5(CC)C=CCN6CCC43C65)C2)C1 (stereo not drawn) [deoxy VLB "A"]
[1]
  activity in the treatment of experimental malignancies in animals: active

## CCC1(O)CN2CCc3c([nH]c4ccccc34)C(C(=O)OC)(c3cc4c(cc3OC)N(C)C3C(O)(C(=O)OC)C(OC(C)=O)C5(CC)C=CCN6CCC43C65)CC(O)(C2)C1 (stereo not drawn) [leurocolombine]
[1]
  activity in the treatment of experimental malignancies in animals: active

## CCC12CN3CCc4c([nH]c5ccccc45)C(C(=O)OC)(c4cc5c(cc4OC)N(C=O)C4C(O)(C(=O)OC)C(OC(C)=O)C6(CC)C=CCN7CCC54C76)CC(C3)C1O2 (stereo not drawn) [leuroformine]
[1]
  activity in the treatment of experimental malignancies in animals: active

## CCC1(O)CC2CN(CCc3c([nH]c4ccccc34)C(C(=O)OC)(c3cc4c(cc3OC)N(C)C3C(O)(C(=O)OC)C(OC(C)=O)C5(CC)C=CCN6CCC43C65)C2)C1 (stereo not drawn) [leurosidine]
[1]
  activity in the treatment of experimental malignancies in animals: active

## CC[C@]12CN3CCc4c([nH]c5ccccc45)[C@@](C(=O)OC)(c4cc5c(cc4OC)N(C)[C@H]4[C@@](O)(C(=O)OC)[C@H](OC(C)=O)[C@]6(CC)C=CCN7CC[C@]54[C@@H]76)C[C@H](C3)[C@H]1O2 [leurosine]
[1]
  activity in the treatment of experimental malignancies in animals: active

## CCC1(O)CN2CCc3c([nH]c4ccccc34)C(C(=O)OC)(c3cc4c(cc3OC)N(C)C3C(O)(C(=O)OC)C(OC(C)=O)C5(CC)C=CCN6CCC43C65)CC(C2)C1O (stereo not drawn) [vincadioline]
[1]
  activity in the treatment of experimental malignancies in animals: active

## CCC1(O)CC2CN(CCc3c([nH]c4ccccc34)C(C(=O)OC)(c3cc4c(cc3OC)N(C=O)C3C5(OC(=O)N(C)C5=O)C(OC(C)=O)C5(CC)C=CCN6CCC43C65)C2)C1 (stereo not drawn) [vincristine 3"-methyl-3-spiro-5"-oxazolidone-2",4"-dione]
[2]; 1.0 mg./kg. × 7 days, IP
  Percent Inhibition of tumor growth: 61%

## CC[C@]1(O)C[C@H]2CN(CCc3c([nH]c4ccccc34)[C@@](C(=O)OC)(c3cc4c(cc3OC)N(C=O)[C@H]3[C@@](O)(C(=O)OC)[C@H](OC(C)=O)[C@]5(CC)C=CCN6CC[C@]43[C@@H]65)C2)C1 [vincristine, leurocristine]
[2]; 2-4.5 mg./kg.
  oral activity: only marginally active, if at all
CA755; 2-4.5 mg./kg.
  oral activity: only marginally active, if at all
[4]; 2-4.5 mg./kg.
  oral activity: only marginally active, if at all
Transplanted tumors [5]
  activity by the oral route: do not show this degree of oral activity
  dose level at which comparable tumor inhibition or prolongation of life is shown: 0.2 to 0.25 mg/kg
[6]
  toxicity at higher levels: usually are toxic at higher levels
[1]
  activity in the treatment of experimental malignancies in animals: active

## CC[C@]1(O)C[C@@H]2CN(CCc3c([nH]c4ccccc34)[C@@](C(=O)OC)(c3cc4c(cc3OC)N(C)[C@H]3[C@@](O)(C(N)=O)[C@H](O)[C@]5(CC)C=CCN6CC[C@]43[C@@H]65)C2)C1 [vindesine, 4-desacetyl VLB C-3 carboxamide]
leukemias
  activity in leukemias in humans: active in certain leukemias
[7]
  neurotoxicity compared with vincristine: less neurotoxicity than does vincristine
